Test results reported in patent publication US20080181866A1, “Amido Anti-viral Compounds” (Genelabs Technologies, Inc., priority 2006, published 2008).

Each molecule was assayed on HCV replication (assay: HCV replicon assay (luciferase) in ET (Huh-lucubineo-ET) cell line). Conditions: Hepatitis C virus, tested at 5 μM; ET replicon cells; luciferase activity measured 48-72 hours later; relative to no compound control.
Type: cell-based
Procedure: A cell line, ET (Huh-lucubineo-ET) was used for screening of compounds of the present invention for inhibiting HCV replication. The ET cell line was stably transfected with RNA transcripts harboring a I389luc-ubi-neo/NS3-3′/ET; replicon with firefly luciferase-ubiquitin-neomycin phosphotransferase fusion protein and EMCV-IRES driven NS3-5B polyprotein containing the cell culture adaptive mutations (E1202G; T12801; K1846T) (Krieger at al, 2001 and unpublished). The ET cells were grown in DMEM (Dulbeco's Modified Eagle's Medium), supplemented with 10% fetal calf serum, 2 mM Glutamine, Penicillin (100 IU/mL)/Streptomycin (100 μg/mL), 1× nonessential amino acids, and 250 μg/mL G418 (“Geneticin”). They were all available through Life Technologies (Bethesda, Md.). The cells were plated at 0.5-1.0×10^4 cells/well in the 96 well plates and incubated for 24 hrs before adding testing compounds. Then the compounds were added to the cells to achieve a final concentration of 0.1 nM to 50 μM and a final DMSO concentration of 0.5%. Luciferase activity were measured 48-72 hours later by adding a lysis buffer and the substrate (Catalog number Glo-lysis buffer E2661 and Bright-Glo luciferase system E2620 Promega, Madison, Wis.). Cells should not be too confluent during the assay. Percent inhibition of replication was plotted relative to no compound control. Under the same condition, cytotoxicity of the compounds was determined using cell proliferation reagent, WST-1 (Roche, Germany). The compounds showing antiviral activities, but no significant cytotoxicities were chosen to determine EC50 and TC50. For these determinations, a 10 point 2-fold serial dilution for each compound was used, which spans a concentration range of 1000 fold. EC50 and similarly TC50 values were calculated by fitting % inhibition at each concentration to the following equation:
% inhibition=100%/[(IC50/[I])^b+1]
where b is Hill's coefficient.
In some preferred embodiments compounds of Formula I will have a % inhibition of at least 20% when tested at 5 μM. In other embodiments the compounds of Formula I will have a % inhibition of at least 50% when tested at 5 μM.

First: O=C(NCc1ccc(NC(=O)[C@@H]2CSC(c3ccncc3)N2C(=O)OCc2ccccc2)cc1)c1ccccc1 (stereo in doubt) [Compound 7077, 4-[4-(Benzoylamino-methyl)-phenylcarbamoyl]-2-pyridin-4-yl-thiazolidine-3-carboxylic acid benzyl ester]
Second: O=C(Nc1ccccc1)c1cccc(NC(=O)[C@@H]2CSC(c3ccncc3)N2C(=O)OCc2ccccc2)c1 (stereo in doubt) [Compound 7112, 4-(3-Phenylcarbamoyl-phenylcarbamoyl)-2-pyridin-4-yl-thizolidine-3-carboxylic acid benzyl ester]
The inhibition at 5 µM of the first is lower: 2.1% for the first, 64.2% for the second.

Compared with `CC(C)(C)OC(=O)N1C(C2CCOCC2)SC[C@H]1C(=O)Nc1nc(-c2ccc(C(=O)NC3CC3)cc2)cs1` (stereo partly drawn) [Compound 7090, 4-[4-(4-Cyclopropylcarbamoyl-phenyl)-thiazol-2-ylcarbamoyl]-2-(tetrahydropyran-4-yl)-thiazolidine-3-carboxylic acid tert-butyl ester], `Cn1ccnc1C(=O)N1C(C2CCOCC2)SC[C@H]1C(=O)Nc1nc(-c2ccc(C(=O)NC3CC3)cc2)cs1` (stereo partly drawn) [Compound 7092, 3-(1-Methyl-1H-imidazole-2-carbonyl)-2-(tetrahydro-pyran-4-yl)-thiazolidine-4-carboxylic acid [4-(4-cyclopropylcarbamoyl-phenyl)-thiazol-2-yl]-amide] is lower in inhibition at 5 µM: 99.7% for the first, 89.4% for the second.

Going from `Cn1ccnc1C1SC[C@@H](C(=O)Nc2nc(-c3ccc(C(=O)NC4CC4)cc3)cs2)N1C(=O)OCc1ccccc1` (single isomer, unassigned) [Compound 7054, 4-[4-(4-Cyclopropylcarbamoyl-phenyl)-thiazol-2-ylcarbamoyl]-2-(1-methyl-1H-imidazol-2-yl)-thiazolidine-3-carboxylic acid benzyl ester] to `CC1SC[C@@H](C(=O)Nc2nc(-c3ccc(C(=O)NC4CC4)cc3)cs2)N1C(=O)OCc1ccccc1` (stereo partly drawn) [Compound 7024, (R)-4-[4-(4-Cyclopropylcarbamoyl-phenyl)-thiazol-2-ylcarbamoyl]-2-methyl-thiazolidine-3-carboxylic acid benzyl ester], the inhibition at 5 µM rises from 94.1% to 99.7%.

Compared with `O=C(Nc1nc(-c2ccccc2)cs1)[C@@H]1CSC2(CCOCC2)N1C(=O)OCc1ccccc1` [Compound 7094, 3-(4-Phenyl-thiazol-2-ylcarbamoyl)-8-oxa-1-thia-4-aza-spiro[4.5]decane-4-carboxylic acid benzyl ester], `O=C(Nc1cccnc1)c1ccc(-c2csc(NC(=O)[C@@H]3CSC4(CCOCC4)N3C(=O)OCc3ccccc3)n2)cc1` [Compound 7139, 3-{4-[4-(Pyridin-3-ylcarbamoyl)-phenyl]-thiazol-2-ylcarbamoyl}-8-oxa-1-thia-4-aza-spiro-[4.5]decane-4-carboxylic acid benzyl ester] is higher in inhibition at 5 µM: 88% for the first, 100% for the second.

First: O=C(O)CCCCC1SC[C@@H](C(=O)Nc2nc(-c3ccc(C(=O)NC4CC4)cc3)cs2)N1C(=O)OCc1ccccc1 (stereo in doubt) [Compound 7088, 2-(4-Carboxy-butyl)-4-[4-(4-cyclopropylcarbamoyl-phenyl)-thiazol-2-ylcarbamoyl]-thiazolidine-3-carboxylic acid benzyl ester]
Second: CNC(=O)CCCCC1SC[C@@H](C(=O)Nc2nc(-c3ccc(C(=O)NC4CC4)cc3)cs2)N1C(=O)OCc1ccccc1 (stereo partly drawn) [Compound 7099, 4-[4-(4-Cyclopropylcarbamoyl-phenyl)-thiazol-2-ylcarbamoyl]-2-(4-methylcarbamoyl-butyl)-thiazolidine-3-carboxylic acid benzyl ester]
The inhibition at 5 µM of the first is lower: 99.8% for the first, 100% for the second.

First: CC(C)(C)OC(=O)N1C(c2cccnc2)SC[C@H]1C(=O)Nc1nc(-c2ccc(C(=O)NC3CC3)cc2)cs1 (single isomer, unassigned) [Compound 7032, 4-[4-(4-Cyclopropylcarbamoyl-phenyl)-thiazol-2-ylcarbamoyl]-2-pyridin-3-yl-thiazolidine-3-carboxylic acid tert-butyl ester]
Second: CC(C)(C)OC(=O)N1C[C@@H](c2ccccc2)C[C@H]1C(=O)Nc1nc(-c2ccc(C(=O)NC3CC3)cc2)cs1 [Compound 7027, (2S,4R)-2-[4-(4-Cyclopropylcarbamoyl-phenyl)-thiazol-2-ylcarbamoyl]-4-phenyl-pyrrolidine-1-carboxylic acid tert-butyl ester]
The inhibition at 5 µM of the first is higher: 99.2% for the first, 6.9% for the second.

First: Cc1ccc2[nH]c(Cc3ccc(NC(=O)[C@@H]4CSC(c5ccncc5)N4C(=O)OCc4ccccc4)cc3)nc2c1 (stereo partly drawn) [Compound 7117, 4-[4-(5-Methyl-1H-benzoimidazol-2-ylmethyl)-phenylcarbamoyl]-2-pyridin-4-yl-thiazolidine-3-carboxylic acid benzyl ester]
Second: O=C(NC1CC1)c1ccc(-c2csc(NC(=O)[C@@H]3CSC(c4ccc(F)cc4)N3C(=O)OCc3ccccc3)n2)cc1 (mixture of isomers) [Compound 7013, (R)-4-[4-(4-Cyclopropylcarbamoyl-phenyl)-thiazol-2-ylcarbamoyl]-2-(4-fluoro-phenyl)-thiazolidine-3-carboxylic acid benzyl ester]
The inhibition at 5 µM of the first is lower: 42.4% for the first, 99.7% for the second.

First: O=C(O)c1ccc(C2SC[C@@H](C(=O)Nc3nc(-c4ccc(C(=O)NC5CC5)cc4)cs3)N2C(=O)OCc2ccccc2)cc1 (mixture of isomers) [Compound 7014, (R)-2-(4-Carboxy-phenyl)-4-[4-(4-cyclopropylcarbamoyl-phenyl)-thiazol-2-ylcarbamoyl]-thiazolidine-3-carboxylic acid benzyl ester]
Second: N#Cc1ccc(C2SC[C@@H](C(=O)Nc3nc(-c4ccc(C(=O)NC5CC5)cc4)cs3)N2C(=O)OCc2ccccc2)cc1 (mixture of isomers) [Compound 7017, (R)-2-(4-Cyano-phenyl)-4-[4-(4-cyclopropylcarbamoyl-phenyl)-thiazol-2-ylcarbamoyl]-thiazolidine-3-carboxylic acid benzyl ester]
The inhibition at 5 µM of the first is lower: 97.7% for the first, 100% for the second.

Going from `COC(=O)CCCCC1SC[C@@H](C(=O)Nc2nc(-c3ccc(C(=O)NC4CC4)cc3)cs2)N1C(=O)OCc1ccccc1` (stereo partly drawn) [Compound 7108, 4-[4-(4-Cyclopropylcarbamoyl-phenyl)-thiazol-2-ylcarbamoyl]-2-(4-methoxycarbonyl-butyl)-thiazolidine-3-carboxylic acid benzyl ester] to `O=C(NC1CC1)c1ccc(-c2csc(NC(=O)[C@@H]3CSC(Cc4ccccc4)N3C(=O)OCc3ccccc3)n2)cc1` (stereo partly drawn) [Compound 7101, 2-Benzyl-4-[4-(4-cyclopropylcarbamoyl-phenyl)-thiazol-2-ylcarbamoyl]-thiazolidine-3-carboxylic acid benzyl ester], the inhibition at 5 µM falls from 99.9% to 98.4%.

First: O=C(NC1CC1)c1ccc(-c2csc(NC(=O)[C@@H]3CSC(c4ccccc4)N3C(=O)OCc3ccccc3)n2)cc1 (stereo partly drawn) [Compound 7044, (R)-4-[4-(4-Cyclopropylcarbamoyl-phenyl)-thiazol-2-ylcarbamoyl]-2-phenyl-thiazolidine-3-carboxylic acid benzyl ester]
Second: COc1ccccc1C1SC[C@@H](C(=O)Nc2nc(-c3ccc(C(=O)NC4CC4)cc3)cs2)N1C(=O)OCc1ccccc1 (mixture of isomers) [Compound 7047, (R)-4-[4-(4-Cyclopropylcarbamoyl-phenyl)-thiazol-2-ylcarbamoyl]-2-(2-methoxy-phenyl)-thiazolidine-3-carboxylic acid benzyl ester]
The inhibition at 5 µM of the first is lower: 98% for the first, 99.6% for the second.

First: O=C(NC1CC1)c1ccc(-c2csc(NC(=O)[C@@H]3C[C@@H](Cc4ccccc4)CN3C(=O)OCc3ccccc3)n2)cc1 [Compound 7006, (2S,4R)-4-Benzyl-2-[4-(4-cyclopropylcarbamoyl-phenyl)-thiazol-2-ylcarbamoyl]-pyrrolidine-1-carboxylic acid benzyl ester]
Second: N#Cc1cccc(C2OC[C@@H](C(=O)Nc3nc(-c4ccc(C(=O)NC5CC5)cc4)cs3)N2C(=O)OCc2ccccc2)c1 (stereo in doubt) [Compound 7081, 2-(3-Cyano-phenyl)-4-[4-(4-cyclopropylcarbamoyl-phenyl)-thiazol-2-ylcarbamoyl]-oxazolidine-3-carboxylic acid benzyl ester]
The inhibition at 5 µM of the first is lower: 98.4% for the first, 100% for the second.

Going from `C=C1C[C@@H](C(=O)Nc2nc(-c3ccc(C(=O)NC4CC4)cc3)cs2)N(C(=O)OC(C)(C)C)C1` [Compound 7040, (S)-2-[4-(4-Cyclopropylcarbamoyl-phenyl)-thiazol-2-ylcarbamoyl]-4-methylene-pyrrolidine-1-carboxylic acid tert-butyl ester] to `O=C(NC1CC1)c1ccc(-c2csc(NC(=O)[C@@H]3CSC(C4CCOCC4)N3C(=O)OCc3ccccc3)n2)cc1` (mixture of isomers) [Compound 7025, (R)-4-[4-(4-Cyclopropylcarbamoyl-phenyl)-thiazol-2-ylcarbamoyl]-2-(tetrahydro-pyran-4-yl)-thiazolidine-3-carboxylic acid benzyl ester], the inhibition at 5 µM rises from 89.9% to 100%.
